In patent publication US8088819B2, “Derivatives of substituted 3-phenyl-1-(phenylthienyl)propan-1-ones and of 3-phenyl-1-(phenylfuranyl) propan-1-ones, preparation and use” (priority 2006, dated 2012):

Key:
[1] = target: T1, hPPARalpha (Homo sapiens, UniProt Q07869); test: PPAR activation: Gal4-hPPARα chimera luciferase transactivation in COS-7 cells, Method 2; format: cell-based; conditions: COS-7, 24 h; for EC50: 1% Ultroser; for Emax: maximum percentage response relative to the reference phenofibric acid, read-out: hPPARalpha % max
T1 construct: expressed in transfected cells; host or cells: COS-7 (monkey kidney fibroblasts)
T1 sequence (Q07869 239-466 limits assumed): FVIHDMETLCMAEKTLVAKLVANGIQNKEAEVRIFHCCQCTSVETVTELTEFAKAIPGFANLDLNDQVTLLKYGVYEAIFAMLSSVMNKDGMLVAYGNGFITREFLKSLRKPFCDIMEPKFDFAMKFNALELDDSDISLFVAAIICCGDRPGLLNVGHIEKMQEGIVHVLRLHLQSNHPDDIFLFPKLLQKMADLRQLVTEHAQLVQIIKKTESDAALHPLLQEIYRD
Method in brief: (§1)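 COS-7 cells were transfected with Gal4-PPAR LBD chimera plus Gal4(RE)_TkpGL3 luciferase reporter (1/10) and seeded serum-free for 4 h. Compounds at 10^−5 to 100 μm were applied for 24 h at 37° C in 1% lipid-free synthetic serum. Luciferase was read after lysis, and EC50 derived.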

[2] = target: T2, hPPARgamma (Homo sapiens, UniProt P37231); test: PPAR activation: Gal4-hPPARγ chimera luciferase transactivation in COS-7 cells, Method 2; format: cell-based; conditions: COS-7, 24 h, Method 2; for Emax: maximum percentage response relative to the reference rosiglitazone, read-out: hPPARgamma % max; for EC50: 1% Ultroser, read-out: hPPARgamma EC50
T2 construct: expressed in transfected cells; host or cells: COS-7 (monkey kidney fibroblasts)
T2 sequence (P37231 238-503 limits assumed): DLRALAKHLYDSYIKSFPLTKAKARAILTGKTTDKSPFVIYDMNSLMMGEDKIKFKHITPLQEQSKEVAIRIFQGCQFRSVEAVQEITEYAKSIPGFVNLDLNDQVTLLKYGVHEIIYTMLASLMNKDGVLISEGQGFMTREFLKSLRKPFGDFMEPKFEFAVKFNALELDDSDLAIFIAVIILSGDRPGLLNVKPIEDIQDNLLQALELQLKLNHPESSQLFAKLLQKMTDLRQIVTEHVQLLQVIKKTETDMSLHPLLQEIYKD
Method in brief: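 Transactivation by a Gal4 DNA-binding domain–hPPARγ ligand-binding domain chimera with a Gal4(RE)-luciferase reporter, transfected into COS-7 cells (plasmid ratio 1/10).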

[3] = target: T3, hPPARdelta (Homo sapiens, UniProt Q03181); test: PPAR activation: Gal4-hPPARδ chimera luciferase transactivation in COS-7 cells, Method 2; format: cell-based; conditions: COS-7, 24 h; for EC50: 1% Ultroser; for Emax: maximum percentage response relative to the reference GW501516, read-out: hPPARdelta % max
T3 construct: expressed in transfected cells; host or cells: COS-7 (monkey kidney fibroblasts)
T3 sequence (Q03181 211-439 limits assumed): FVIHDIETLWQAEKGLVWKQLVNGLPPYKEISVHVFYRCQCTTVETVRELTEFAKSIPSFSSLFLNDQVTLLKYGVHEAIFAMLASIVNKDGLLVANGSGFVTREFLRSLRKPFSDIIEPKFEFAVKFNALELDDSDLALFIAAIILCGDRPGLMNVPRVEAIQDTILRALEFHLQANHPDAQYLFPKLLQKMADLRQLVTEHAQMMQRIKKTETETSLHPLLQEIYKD
Method in brief: as §1

[4] = tested on: target genes of PPARδ in murine myocytes (C2C12); test: Expression of target genes of PPARδ (PDK4, CPT1b, UCP2, UCP3) in murine myocytes, quantitative RT-PCR; format: cell-based; conditions: murine myocytes in vitro
Text: It is established that regulation of the expression of these genes is directly controlled by PPARδ in this cell type. The more the expression of the genes is increased, the greater the stimulating action of the compound according to the invention on metabolism in the muscle cells.
Cells from the murine cell line C2C12 (obtained from ECACC) are cultivated in DMEM medium (Gibco; 41965-039) with addition of 1% L-glutamine (Gibco; 25030), 1% of penicillin/streptomycin (VWR; BWSTL0022/100) and 10% decomplemented fetal calf serum (FCS. Gibco; 10270-106).
The cells are seeded on 24-well plates at a density of 50·10^3 cells/well. At confluence, the medium is replaced with a differentiating medium (basal medium with addition of 2% of horse serum (Gibco; 26050-088)), then incubated at 37° C. and 5% CO2 for 4 days in order to differentiate them to myocytes.
After 5 days of differentiation, the cells are put in a deprivation medium (basal medium without serum) for 6 hours. The cells are then treated with the compounds according to the invention in the deprivation medium. Compounds 2, 4, 7, 11, 39, 40, 46, 49 and 72 were in dose effect, corresponding to 1×, 10× and 100× their EC50 PPARδ. The compounds according to the invention were dissolved in dimethylsulfoxide (DMSO, Sigma; D5879). The cells were treated for 24 h at 37° C., 5% CO2. The effect of the compounds according to the invention was compared with the effect of DMSO alone.
After treatment, the total RNA is extracted from the cells using the NucleoSpine® 96 RNA kit (Macherey Nagel, Hoerdt, France) following the manufacturer's instructions.
1 μg of total RNA (quantified based on the UV spectrophotometer reading) was then reverse-transcribed to complementary DNA by reaction for 1 hour at 37° C. in a total volume of 30 μl containing buffer 1× (Invitrogen), 1.5 mM of DTT, 0.18 mM of dNTPs (Promega), 200 ng of pdN6 (Amersham), 30 U of RNase inhibitor (Promega) and 1 μl of MMLV-RT (Invitrogen).
The quantitative PCR experiments were carried out using the MyiQ Single-Color Real-Time PCR Detection System (Biorad, Marnes-la-Coquette, France) and were performed using the iQ SYBR Green Supermix kit following the supplier's recommendations, in 96-well plates, on 5 μl of diluted reverse-transcription reaction mixtures with a hybridization temperature of 60° C. Primer pairs specific to the PDK4, CPT1b, UCP2 and UCP3 genes under investigation were used:
The amount of fluorescence emitted is directly proportional to the amount of complementary DNA present at the start of the reaction and amplified during PCR. For each target investigated, a range is produced by successive dilutions of a pool constituted of a few microliters of various reverse-transcription reaction mixtures. The relative expression levels of each target are thus determined using the efficacy curves obtained with the points in the range.
The levels of expression of the genes of interest were then normalized relative to the level of expression of the reference gene 36B4 (whose specific primers are: sense primer: 5′-[…]-3′ (SEQ ID No. 19) and antisense primer: 5′-[…]-3′ (SEQ ID No. 20)). The induction factor, i.e. the ratio of the relative signal (induced by the compound according to the invention) to the mean of the relative values of the control group, was then calculated. The higher this factor, the greater the activating character of the compounds according to the invention with respect to gene expression. The final result is represented as the mean of the induction values in each experimental group.

[5] = target: T1, hPPARalpha; test: PPAR activation: Gal4-hPPARα chimera luciferase transactivation in COS-7 cells, Method 1; format: cell-based; conditions: COS-7, 24 h; for Emax: maximum percentage response relative to the reference phenofibric acid, read-out: hPPARalpha % max
Procedure: (§2) The activation of the PPARs was evaluated in vitro on a line of monkey kidney fibroblasts (COS-7) by measuring the transcriptional activity of chimeras constituted of the DNA binding domain of the Gal4 transcription factor of yeast and the ligand binding domain of the various PPARs. The compounds were tested at doses between 10^−5 and […] on the chimeras Gal4-PPARα, γ or δ, and the corresponding EC50 values were determined.
(§3) The COS-7 cells were obtained from the ATCC and were cultivated in DMEM medium supplemented with 10% (v/v) of fetal calf serum, 100 U/ml of penicillin (Gibco, Paisley, UK) and 2 mM of L-glutamine (Gibco, Paisley, UK). The cells were incubated at 37° C. in a humid atmosphere containing 5% CO2.
(§4) The plasmids Gal4(RE)_TkpGL3, pGal4-hPPARα, pGal4-hPPARγ, pGal4-hPPARδ and pGal4-φ are described in the literature (Raspe E et al., 1999). The constructs pGal4-hPPARα, pGal4-hPPARγ and pGal4-hPPARδ were obtained by cloning DNA fragments amplified by PCR corresponding to the DEF domains of the human nuclear receptors PPARα, PPARγ and PPARδ in the pGal4-φ vector.
(§5) The COS-7 cells in suspension were transfected with 150 ng of DNA per well, with a pGal4-PPAR/Gal4(RE)_TkpGL3 ratio of 1/10, in the presence of 10% fetal calf serum. The cells were seeded in 96-well plates (4×10^4 cells/well) and then incubated at 37° C. for 24 hours. Activation with the test compounds is carried out for 24 h at 37° C. in serum-free medium. At the end of the experiment, the cells were lysed and the luciferase activity was determined using the Steady-Lite™ HTS (Perkin Elmer) following the supplier's recommendations.

[6] = target: T2, hPPARgamma; test: PPAR activation: Gal4-hPPARγ chimera luciferase transactivation in COS-7 cells, Method 1; format: cell-based; conditions: COS-7, 24 h; for Emax: maximum percentage response relative to the reference rosiglitazone, read-out: hPPARgamma % max
Procedure: as §2, §3, §4, §5

[7] = target: T3, hPPARdelta; test: PPAR activation: Gal4-hPPARδ chimera luciferase transactivation in COS-7 cells, Method 1; format: cell-based; conditions: COS-7, 24 h; for Emax: maximum percentage response relative to the reference GW501516, read-out: hPPARdelta % max
Procedure: as §2, §3, §4, §5

| EC50 [1] | Emax [1] | Emax [2] | EC50 [2] | EC50 [3] | Emax [3] | melting point | EC50 [5] | Emax [5] | Emax [6] | EC50 [7] | Emax [7] | EC50 [6] | Structure (SMILES) | expression of genes involved in carbohydrate and lipid metabolism and in thermoregulation [4] |
| --- | --- | --- | --- | --- | --- | --- | --- | --- | --- | --- | --- | --- | --- | --- |
| 1010 nM | 36% | 52% | 550 nM | 6 nM | 90% | 75 to 77 °C | – | – | – | – | – | – | CC(C)(Oc1ccc(CCC(OCc2cccnc2)c2ccc(-c3ccc(C(F)(F)F)cc3)s2)c(Cl)c1Cl)C(=O)O (stereo not drawn) [Compound 39, 2-(2,3-dichloro-4-(3-(pyridin-3-ylmethoxy)-3-(5-(4-(trifluoromethyl)phenyl)thien-2-yl)propyl)phenoxy)-2-methylpropanoic acid] | stimulating effects |
| 590 nM | 35% | 32% | 990 nM | 5 nM | 78.3% | 46 to 48 °C | – | – | – | – | – | – | COC(CCc1ccc(OC(C)(C)C(=O)O)c(Cl)c1Cl)c1ccc(-c2ccc(C(F)(F)F)cc2)s1 (stereo not drawn) [Compound 40, 2-(2,3-dichloro-4-(3-methoxy-3-(5-(4-(trifluoromethyl)phenyl)-thien-2-yl)propyl)phenoxy)-2-methylpropanoic acid] | stimulating effects |
| – | – | – | – | – | – | 165 to 166 °C | 11 nM | 58% | 30% | 18 nM | 105% | – | CC(C)(Oc1ccc(CCC(=O)c2ccc(-c3ccc(C(F)(F)F)cc3)s2)c(F)c1F)C(=O)O [Compound 46, 2-(2,3-difluoro-4-(3-oxo-3-(5-(4-(trifluoromethyl)phenyl)thien-2-yl)propyl)phenoxy)-2-methylpropanoic acid] | stimulating effects |
| – | – | – | – | – | – | 157 to 158 °C | – | 49% | 85% | 6 nM | 86% | 560 nM | Cc1cc(CCC(=O)c2ccc(-c3ccc(C(F)(F)F)cc3)s2)cc(C)c1OC(C)(C)C(=O)O [Compound 48, 2-(2,6-dimethyl-4-(3-oxo-3-(5-(4-(trifluoromethyl)phenyl)thien-2-yl)propyl)phenoxy)-2-methylpropanoic acid] | stimulating effects |
